Source: patent US20140249041A1, “Marker of Prostate Cancer” (Region Midtjylland, priority 2009, published 2014)

How the values were obtained:
SLC18A2 expression = SLC18A2 expression by real-time PCR in cell lines after epigenetic drug treatment; assay type: cell-based
Protocol: RNA Preparation, cDNA Synthesis and Quantitative RT-PCR Total RNA from cultured cells and prostate tissue samples was isolated with the RNeasy MinElute Cleanup Kit (Qiagen), as described elsewhere (20). First-strand cDNA synthesis was performed with SuperScript II Reverse Transcriptase (Invitrogen) using oligo(dT) priming. SLC18A2 expression was measured with TaqMan Gene Expression Assay Hs00161858_ml and TaqMan Universal PCR Master Mix on a real-time ABI PRISM 7500 Sequence Detection System (all from Applied Biosystems). For normalization, UBC expression was measured using primers 5′-GATTTGGGTCGCGGTTCTT-3′ (SEQ ID NO: 6) plus 5′-[…]-3′ (SEQ ID NO: 7) and SYBR GREEN PCR Master Mix (Applied Biosystems). All reactions were run in triplicates.
All cell lines were grown in RPMI 1640 with L-glutamin (Gibco, Invitrogen) supplemented with 10% fetal bovine serum, 100 U/ml penicillin and 100 μg/ml streptomycin. LNCaP, PC-3, DU145, and 22rv1 cells were obtained from ATCC, BPH-1 cells from DSMZ (Braunschweig, Germany), and PNT1A cells from ECACC. PSK-1 cells were kindly provided by Dr. Adrie van Boekhoven (University of Colorado), VCaP and DuCaP cells by Dr. Kenneth Pienta (University of Michigan), and H69 and H69A cells by Dr. Marie Stampe Ostenfeld (Danish Cancer Society, Copenhagen, Denmark). Cell lines were treated with 1 μM 5-aza-2′-deoxycytidine (Sigma) for 48 h and allowed 5 days recovery in complete medium. Four cell lines were given a combination of 1 μM 5-aza-2′-deoxycytidine (48 h treatment plus 5 days recovery) and 1 mM 4-phenylbutyric acid (Sigma) (continuously for 7 days). Mock treated cells were given buffer only. Growth media were changed daily and cells harvested on day 7. All experiments were performed in duplicate and repeated 2-3 times.

[1] = tested on: SLC18A2 promoter CpG island; assay: Bisulfite sequencing of SLC18A2 CpG island in cell lines before and after epigenetic drug treatment; assay type: cell-based; conditions: PSK-1 cells; 1 μM 5-aza-2′-deoxycytidine; from 69% before treatment
Protocol: For bisulfite sequencing, genomic DNA from prostate cell lines and carefully selected 20-μm sections of fresh-frozen Tissue-tek-embedded BPH, adenocarcinoma and adjacent non-malignant prostate tissue samples was isolated using the PUREGENE DNA Purification Kit (Gentra Systems) with proteinase K treatment (100 units, 30 min, 37 C), as previously described (29). Laser-microdissection was performed as described in (31). DNA was bisulfite converted using the MethylEasy DNA Bisulfite Modification Kit (Human Molecular Signaling, Sydney, Australia). The SLC18A2 promoter CpG island was PCR amplified with TEMPase Hot Start DNA Polymerase (Ampliqon) using primers 5′-[…]-3′ (SEQ ID NO: 8) and 5′-[…]-3′ (SEQ ID NO: 9). Gel purified (illustra GFX PCR DNA and Gel Band Purification Kit; GE Healthcare) amplicons were subcloned into the pCR4-TOPO vector (Invitrogen) and several clones sequenced using M13 forward and reverse primers. Clinicopathological data from patients undergoing methylation analysis is compiled in FIG. 4.
All cell lines were grown in RPMI 1640 with L-glutamin (Gibco, Invitrogen) supplemented with 10% fetal bovine serum, 100 U/ml penicillin and 100 μg/ml streptomycin. LNCaP, PC-3, DU145, and 22rv1 cells were obtained from ATCC, BPH-1 cells from DSMZ (Braunschweig, Germany), and PNT1A cells from ECACC. […]

## Nc1ncn([C@H]2C[C@H](O)[C@@H](CO)O2)c(=O)n1 [5-aza-2′-deoxycytidine]
SLC18A2 expression; H69A cells (derived adherent line), 1 μM 5-aza-2′-deoxycytidine
  induction of SLC18A2 expression: not observed
SLC18A2 expression; H69 cells, 1 μM 5-aza-2′-deoxycytidine 48 h plus 5 days recovery
  induction of SLC18A2 expression: induced SLC18A2 expression
SLC18A2 expression; PSK-1 cells, 1 μM 5-aza-2′-deoxycytidine 48 h plus 5 days recovery
  induction of SLC18A2 expression: induced SLC18A2 expression
[1]
  CpG island methylation after treatment: 11%
